The values that follow come from paper PMC4770715, “LIM kinase inhibitors disrupt mitotic microtubule organization and impair tumor cell proliferation” (Oncotarget, 2015).

Each structure is given as a SMILES string.

Some targets named below: BMPR2 (Homo sapiens, UniProt Q13873); CAMK2A (Homo sapiens, UniProt Q9UQM7); CASK (Homo sapiens, UniProt O14936); DAPK2 (Homo sapiens, UniProt Q9UIK4); IGF1R (Homo sapiens, UniProt P08069); NEK1 (Homo sapiens, UniProt Q96PY6); NEK3 (Homo sapiens, UniProt P51956); PAK1 (Homo sapiens, UniProt Q13153); PIK3CA(M1043I) (Homo sapiens, UniProt P42336, M1043I); PLK1 (Homo sapiens, UniProt P53350); PLK2 (Homo sapiens, UniProt Q9NYY3); PRKCQ (Homo sapiens, UniProt Q04759); SYK (Homo sapiens, UniProt P43405); TNK2 (Homo sapiens, UniProt Q07912).

What all share (experiment): biochemical
Common to all, as to parameters: KINOMEscan active-site competition binding, percent of control (100 = no competition)
Holding throughout (settings): competition binding, percent control

For experiment [1], the target named is T1, ABL1(H396P)-nonphosphorylated (Homo sapiens, UniProt P00519, H396P).
T1 construct: nonphosphorylated

The next experiment concerns the target T2, MEK1 (Homo sapiens, UniProt Q02750).
T2 construct: gene MAP2K1

Another experiment has as its target T3, MST2 (Homo sapiens, UniProt Q13188).
T3 construct: gene STK3

The target of another experiment is T4, PCTK3 (Homo sapiens, UniProt Q07002).
T4 construct: gene CDK18

Another experiment deals with T5, PFCDPK1(P.falciparum) (Plasmodium falciparum, UniProt P62344).
T5 construct: gene CDPK1

Experiment [2] has as its target T6, RSK3(Kin.Dom.1-N-terminal) (Homo sapiens, UniProt Q15349).
T6 construct: gene RPS6KA2; Kin.Dom.1-N-terminal

Experiment [3] has as its target T7, RSK4(Kin.Dom.2-C-terminal) (Homo sapiens, UniProt Q9UK32).
T7 construct: gene RPS6KA6; Kin.Dom.2-C-terminal

Another experiment has as its target T8, YSK4 (Homo sapiens, UniProt Q56UN5).
T8 construct: gene MAP3K19

T5 sequence (P62344 whole entry): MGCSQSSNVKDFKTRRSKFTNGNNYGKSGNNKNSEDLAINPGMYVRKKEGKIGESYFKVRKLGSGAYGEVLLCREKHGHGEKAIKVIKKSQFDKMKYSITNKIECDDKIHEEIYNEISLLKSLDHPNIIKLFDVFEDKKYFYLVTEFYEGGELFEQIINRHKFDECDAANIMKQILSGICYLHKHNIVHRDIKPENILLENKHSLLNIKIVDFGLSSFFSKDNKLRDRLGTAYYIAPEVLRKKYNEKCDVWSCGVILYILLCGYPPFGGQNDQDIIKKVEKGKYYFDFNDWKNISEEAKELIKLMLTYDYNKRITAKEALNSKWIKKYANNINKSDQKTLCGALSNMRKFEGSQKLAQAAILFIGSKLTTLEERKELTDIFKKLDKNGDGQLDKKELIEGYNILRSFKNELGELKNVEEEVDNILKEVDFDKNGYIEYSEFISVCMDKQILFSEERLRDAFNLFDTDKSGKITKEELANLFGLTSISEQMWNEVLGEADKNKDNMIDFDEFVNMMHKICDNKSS
T2 sequence (Q02750 whole entry): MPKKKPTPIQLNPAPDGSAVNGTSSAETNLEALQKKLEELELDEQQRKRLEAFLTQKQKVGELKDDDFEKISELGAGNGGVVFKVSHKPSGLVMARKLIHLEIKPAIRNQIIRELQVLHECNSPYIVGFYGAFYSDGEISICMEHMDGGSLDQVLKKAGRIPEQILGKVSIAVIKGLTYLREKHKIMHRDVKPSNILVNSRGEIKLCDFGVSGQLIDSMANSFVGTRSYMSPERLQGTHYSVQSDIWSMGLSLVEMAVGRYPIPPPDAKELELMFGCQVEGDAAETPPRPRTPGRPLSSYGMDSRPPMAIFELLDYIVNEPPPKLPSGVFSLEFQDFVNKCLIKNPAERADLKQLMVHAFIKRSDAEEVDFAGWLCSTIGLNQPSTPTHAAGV
Chain of CAMK2A (Q9UQM7 whole entry): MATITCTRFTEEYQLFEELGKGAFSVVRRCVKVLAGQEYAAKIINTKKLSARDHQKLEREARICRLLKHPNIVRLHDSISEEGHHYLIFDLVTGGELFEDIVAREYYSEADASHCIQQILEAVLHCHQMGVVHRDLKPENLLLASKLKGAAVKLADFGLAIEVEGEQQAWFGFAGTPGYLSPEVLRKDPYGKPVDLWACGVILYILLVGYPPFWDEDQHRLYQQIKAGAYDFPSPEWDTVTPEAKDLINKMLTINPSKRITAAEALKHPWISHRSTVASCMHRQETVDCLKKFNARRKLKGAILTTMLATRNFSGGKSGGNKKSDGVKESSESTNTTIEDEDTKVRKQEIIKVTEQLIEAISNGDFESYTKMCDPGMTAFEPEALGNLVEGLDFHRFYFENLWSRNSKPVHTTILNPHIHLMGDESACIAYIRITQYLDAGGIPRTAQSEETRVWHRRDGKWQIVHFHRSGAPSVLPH
T7 sequence (Q9UK32 whole entry): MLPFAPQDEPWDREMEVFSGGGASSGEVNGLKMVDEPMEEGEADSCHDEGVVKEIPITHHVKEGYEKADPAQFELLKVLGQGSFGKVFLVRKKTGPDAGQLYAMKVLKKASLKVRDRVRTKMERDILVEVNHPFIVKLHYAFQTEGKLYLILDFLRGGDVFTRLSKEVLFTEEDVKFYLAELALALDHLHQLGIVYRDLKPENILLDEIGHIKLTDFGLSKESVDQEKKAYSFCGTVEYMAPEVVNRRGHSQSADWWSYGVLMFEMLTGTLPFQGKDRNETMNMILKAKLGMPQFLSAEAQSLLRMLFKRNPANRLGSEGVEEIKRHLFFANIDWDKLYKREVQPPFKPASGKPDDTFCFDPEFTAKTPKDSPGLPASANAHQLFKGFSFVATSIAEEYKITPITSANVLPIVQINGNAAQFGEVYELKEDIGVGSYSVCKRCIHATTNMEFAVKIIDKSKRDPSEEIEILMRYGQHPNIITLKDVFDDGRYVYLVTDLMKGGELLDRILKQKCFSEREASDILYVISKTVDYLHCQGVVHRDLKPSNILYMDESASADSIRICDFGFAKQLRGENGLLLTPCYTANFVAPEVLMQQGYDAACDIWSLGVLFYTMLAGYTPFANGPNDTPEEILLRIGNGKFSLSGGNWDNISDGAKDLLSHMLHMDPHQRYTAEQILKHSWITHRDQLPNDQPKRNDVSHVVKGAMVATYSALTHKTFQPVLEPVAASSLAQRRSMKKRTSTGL
Chain of TNK2 (Q07912 whole entry): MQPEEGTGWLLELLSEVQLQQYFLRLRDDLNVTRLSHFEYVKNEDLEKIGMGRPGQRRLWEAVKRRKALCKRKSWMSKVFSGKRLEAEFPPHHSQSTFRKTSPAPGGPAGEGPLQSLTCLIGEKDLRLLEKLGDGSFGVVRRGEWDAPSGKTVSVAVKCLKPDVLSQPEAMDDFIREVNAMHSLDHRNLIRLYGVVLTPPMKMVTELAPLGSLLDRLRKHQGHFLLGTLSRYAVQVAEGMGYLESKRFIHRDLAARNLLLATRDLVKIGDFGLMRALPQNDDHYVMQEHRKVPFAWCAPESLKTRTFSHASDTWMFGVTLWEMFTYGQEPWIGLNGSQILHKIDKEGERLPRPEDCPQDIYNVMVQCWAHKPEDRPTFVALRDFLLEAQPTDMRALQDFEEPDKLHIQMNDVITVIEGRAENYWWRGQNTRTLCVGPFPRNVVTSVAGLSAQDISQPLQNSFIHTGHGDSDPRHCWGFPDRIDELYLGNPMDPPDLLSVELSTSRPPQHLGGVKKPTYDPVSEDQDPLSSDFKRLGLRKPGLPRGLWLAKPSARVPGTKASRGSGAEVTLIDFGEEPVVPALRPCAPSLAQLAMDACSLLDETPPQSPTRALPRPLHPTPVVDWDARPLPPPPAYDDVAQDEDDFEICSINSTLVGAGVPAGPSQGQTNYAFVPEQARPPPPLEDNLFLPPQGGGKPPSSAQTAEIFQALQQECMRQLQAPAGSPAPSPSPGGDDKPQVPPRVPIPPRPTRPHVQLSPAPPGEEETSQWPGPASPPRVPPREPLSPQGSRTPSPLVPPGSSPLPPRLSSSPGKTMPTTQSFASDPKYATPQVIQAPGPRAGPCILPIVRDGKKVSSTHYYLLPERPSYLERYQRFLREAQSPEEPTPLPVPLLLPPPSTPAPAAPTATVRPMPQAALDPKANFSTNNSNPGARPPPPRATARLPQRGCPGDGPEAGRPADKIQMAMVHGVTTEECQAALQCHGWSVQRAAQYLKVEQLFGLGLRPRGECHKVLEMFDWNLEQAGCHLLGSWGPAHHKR
Chain of PLK1 (P53350 whole entry): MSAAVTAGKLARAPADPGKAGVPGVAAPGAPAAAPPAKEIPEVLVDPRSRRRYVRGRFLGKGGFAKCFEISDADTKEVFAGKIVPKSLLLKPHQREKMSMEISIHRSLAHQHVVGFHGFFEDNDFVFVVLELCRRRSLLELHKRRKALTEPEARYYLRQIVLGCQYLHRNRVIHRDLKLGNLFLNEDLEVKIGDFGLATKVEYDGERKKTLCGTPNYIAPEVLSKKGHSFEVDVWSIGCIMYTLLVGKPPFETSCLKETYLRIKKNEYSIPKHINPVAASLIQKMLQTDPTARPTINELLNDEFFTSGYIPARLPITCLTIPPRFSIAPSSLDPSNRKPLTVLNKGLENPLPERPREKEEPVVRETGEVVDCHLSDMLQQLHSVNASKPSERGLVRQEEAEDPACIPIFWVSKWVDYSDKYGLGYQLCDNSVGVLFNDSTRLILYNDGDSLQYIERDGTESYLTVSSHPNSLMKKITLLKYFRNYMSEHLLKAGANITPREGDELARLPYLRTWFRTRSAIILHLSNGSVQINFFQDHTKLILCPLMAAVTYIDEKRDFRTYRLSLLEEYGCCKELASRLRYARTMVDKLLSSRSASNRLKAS
T6 sequence (Q15349 whole entry): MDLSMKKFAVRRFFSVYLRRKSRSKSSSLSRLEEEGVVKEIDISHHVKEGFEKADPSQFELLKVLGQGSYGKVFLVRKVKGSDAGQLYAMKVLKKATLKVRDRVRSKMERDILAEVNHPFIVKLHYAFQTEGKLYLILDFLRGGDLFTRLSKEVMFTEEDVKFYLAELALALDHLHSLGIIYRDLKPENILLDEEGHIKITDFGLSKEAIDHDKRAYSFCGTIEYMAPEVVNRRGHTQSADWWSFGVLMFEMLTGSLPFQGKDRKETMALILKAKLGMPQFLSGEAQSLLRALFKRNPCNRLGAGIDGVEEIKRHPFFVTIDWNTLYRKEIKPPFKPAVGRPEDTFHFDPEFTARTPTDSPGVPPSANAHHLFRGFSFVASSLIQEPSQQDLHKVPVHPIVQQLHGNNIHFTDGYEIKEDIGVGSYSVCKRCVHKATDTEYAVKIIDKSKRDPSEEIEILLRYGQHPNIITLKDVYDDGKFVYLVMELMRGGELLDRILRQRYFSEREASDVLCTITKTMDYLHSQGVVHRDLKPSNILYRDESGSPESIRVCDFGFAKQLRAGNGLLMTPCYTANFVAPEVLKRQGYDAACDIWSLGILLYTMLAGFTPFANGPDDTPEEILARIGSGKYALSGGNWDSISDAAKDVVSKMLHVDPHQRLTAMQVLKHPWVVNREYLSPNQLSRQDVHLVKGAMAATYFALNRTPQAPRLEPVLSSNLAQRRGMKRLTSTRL
Chain of NEK3 (P51956 whole entry): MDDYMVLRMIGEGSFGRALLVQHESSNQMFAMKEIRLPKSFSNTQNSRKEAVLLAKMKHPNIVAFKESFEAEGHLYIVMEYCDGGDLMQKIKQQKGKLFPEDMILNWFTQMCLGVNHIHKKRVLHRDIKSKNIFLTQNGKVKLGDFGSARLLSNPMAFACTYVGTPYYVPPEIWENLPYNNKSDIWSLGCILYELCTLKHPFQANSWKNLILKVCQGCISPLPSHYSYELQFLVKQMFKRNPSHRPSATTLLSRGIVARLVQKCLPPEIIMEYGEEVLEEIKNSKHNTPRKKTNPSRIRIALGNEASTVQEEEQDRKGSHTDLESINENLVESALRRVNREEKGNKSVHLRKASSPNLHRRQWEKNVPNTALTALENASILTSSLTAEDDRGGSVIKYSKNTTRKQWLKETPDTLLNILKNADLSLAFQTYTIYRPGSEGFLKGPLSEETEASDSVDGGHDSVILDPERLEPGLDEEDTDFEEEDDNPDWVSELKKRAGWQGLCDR

In the case of `COc1ccc(-c2cnccc2-c2cnc(NC(=O)C(C)C)s2)c(C(F)(F)F)c1` [CRT0105446, N-{5-[3-(4-Methoxy-2-trifluoromethyl-phenyl)-pyridin-4-yl]-hiazol-2-yl}-isobutyramide], the remaining binding at 10 µM was 71% in experiment [1]; 100% at BMPR2; 82% at CAMK2A; 1.2% at CASK; 87% on DAPK2; 100% on IGF1R. Moreover, the remaining binding at 10 µM at MEK1 stood at 87%; on MST2 it was 100%; on NEK1, 100%; at NEK3, 100%; on PAK1 it was 57%; at PCTK3 it was 7.7%. For the same compound, the remaining binding at 10 µM at PFCDPK1(P.falciparum) amounted to 30%; on PIK3CA(M1043I) it was 100%; at PLK1, 100%; on PLK2, 99%; on PRKCQ, 74%; in [2], 71%. For the same compound, the remaining binding at 10 µM in experiment [3] amounted to 16%; at SYK, 100%; at TNK2 it was 91%; on YSK4 it was 90%.
For `Cc1ccc(-c2cnccc2-c2cnc(Nc3ccc(O)cc3)s2)c(Cl)c1` [CRT0105950, 4-{5-[3-(2-Chloro-4-methyl-phenyl)-pyridin-4-yl]-thiazol-2-ylamino}-phenol], the remaining binding at 10 µM is 27% in experiment [1]; 8.9% on BMPR2; 33% at CAMK2A; 13% at CASK; 53% at DAPK2; 3.6% on IGF1R. For the same compound, the remaining binding at 10 µM was found to be 51% on MEK1; 0.7% at MST2; 81% on NEK1; 88% on NEK3; 97% on PAK1; 68% at PCTK3. The remaining binding at 10 µM on PFCDPK1(P.falciparum) stood at 17%; at PIK3CA(M1043I), 100%; at PLK1, 100%; on PLK2 it was 9%; on PRKCQ, 13%; in [2], 0.15%. In addition, the remaining binding at 10 µM worked out at 2.9% in experiment [3], 100% on SYK, 25% on TNK2 and 53% on YSK4.
